# Test results published in patent US11317631B2, “Natamycin compositions and uses thereof” (Arec Crop Protection B.V., priority 2016, dated 2022).
# Where two headings read alike, the source gives them in different places.
# Assays:
# [1] = BET surface area analysis; format: physicochemical; set-up: BET analysis: dose or concentration left out as unconfirmed; conditions: for BET: batches of Table 20; for BET analysis: milled to a particle size of 2 μm
# Experimental: Surface area may be measured by any suitable methods or techniques known in the art. For example, with respect to the variations described above, the surface area is measured by BET (also known in the art as Brunauer, Emmett and Tellers analysis theory). Using BET analysis, the surface area of the natamycin composition may be determined by physical adsorption of nitrogen (N2) gas on the surface of the natamycin composition, which is a solid. The value of the BET analysis is expressed as m^2 per gram of solid material.
# Brunauer, Emmett, and Tellers (BET) analysis theory was used to determine the surface area (expressed as m^2/g) for Natamycin Composition A and Control Natamycin. Each sample was milled to a particle size of […] prior to BET analysis.
# Saccharomyces cerevisiae [2] = test: Bioavailability: filter disc inhibition zone on yeast agar plates (Examples 15 and 16); format: cell-based; conditions: 10 μl of 3 mM natamycin
# Experimental: Saccharomyces cerevisiae (at least 10^5 cfu/ml) was distributed on Petri dishes with a diameter of 145 mm containing 30 ml Potato Dextrose Agar (PDA; Carl Roth; pH of about 6) using sterilized swabs. […] Following the application of a filter, Petri dishes were incubated for 16 h h in a refrigerator at 4° C. to allow diffusion of natamycin into the agar. After 16 h the filter discs were removed from the agar and the Petri dishes were incubated upside down in a stove at 30° C. […] After 24 h incubation in the stove the size of the inhibition zone was determined using a digital caliper gauge. The data are presented as square mm and are an average of six replicas. The effect of 3 mM natamycin on yeast growth in Petri dishes was determined as described herein above. Numbers represent surface of inhibition zones expressed in square mm. Same methods as described above in Example 15. The effect of 3 mM natamycin on yeast growth in Petri dishes was determined as described herein above, unless otherwise indicated.
# Botrytis cinerea = test: Botrytis on wounded apples (Examples 18 to 20); format: in vivo
# Experimental: Tested fruit: apples […] from organic origin/SKAL certified. SKAL is a semi-governmental Dutch organization that controls organic production in the Netherlands. Wounds of the apples were checked at day 3. Natamycin with different proteins and starch contents were tested at a natamycin concentration of 100 ppm. Used pathogen: Botrytis cinerea spore-suspension containing 2*10^6 spores/ml. Application: The fruit peel of the apple was damaged with a cork borer, ø 4 mm and depth 0.5 cm into the fruit, with 2 wounds per apple. 40 microliter of a freshly prepared spore suspension of B. cinerea was applied by pipette onto each wound. Subsequently, the spore-suspension was allowed to air-dry for 4 hours. Then, 50 microliter of a treatment as presented in the list above was applied by pipette to each wound. All fruits were kept at room temperature (20° C.). Wounds of the apples were checked after 3 days of incubation. The efficacy was calculated by measuring the surface area (square mm) of the rot on the apples compared to the untreated control (see Tables 31 and 32). Replicates: All treatments for the apple experiment were performed on six individual apples with two wounds each resulting in 12 wounds per treatment. This experiment was performed as described in Example 18. This experiment was performed as described in Example 19. Natamycin A and Natamycin E were used at different concentrations and data were recorded at different time points, as is indicated in Table 35.
# [3] = Average particle size of natamycin batches (Example 14); format: physicochemical; conditions: batches of Table 20
# Source text: Methods for determining the average size of particles in a composition are known to the skilled person. For example, Hukkanen and Braatz, 2003. Sensors and Actuators B 96: 451-459, discuss varies methods that can be used for determining the average particle size in a composition, including forward light scattering and ultrasonic extinction. A preferred method is sieve analysis or laser diffraction analysis, for example using a Analysette 22-MicroTec plus laser-particle-sizer (Fritsch, Idar-Oberstein, Germany).
# Several batches of crude natamcyin, prepared as described herein above, and commercial batches of purified natamycin (95%) were obtained and analysed.
# Saccharomyces cerevisiae [4] = test: Bioavailability: filter disc inhibition zone, disc moved to a new plate after 24 h (Example 17); format: cell-based; conditions: 50 μl of 3 mM natamycin
# Experimental: Saccharomyces cerevisiae (at least 10^5 cfu/ml) was distributed on Petri dishes with a diameter of 90 mm containing 10 ml PDA agar (Carl Roth, pH about 6) using sterilized swabs. Filter paper discs (Whatman) with a diameter of 6 mm were loaded with 50 μl of a solution containing a concentration of 3 mM natamycin. The size of the inhibition zone is a result of the natamycin released from the sample disc. After 24 h of incubation in the stove the size of the inhibition zone was measured using a digital caliper gauge. After measuring, the filter discs were removed and replaced on a new Petri dish similar to the previous one (90 mm containing 10 ml PDA agar and Saccharomyces cerevisiae (at least 10^5 cfu/ml) distributed by swabs). 24 hours after the replacement of the filters, the inhibition zone was measured again. The data are presented as square mm and are an average of four replicas.
# [5] = Saturation studies: dissolution in water with 5% polysorbate 80, HPLC peak areas; format: physicochemical; conditions: water + 5% polysorbate 80, 22° C.
# Experimental: Saturation studies were performed on Natamycin Composition A and Control Natamycin, both at 25% (w/w %) suspension in water. […] To prepare the samples for solubility analysis, a plastic pipet was used to add 3 drops (0.25 mL) of thoroughly shaken formulation to 10 mL of the dissolution medium. […] Then, 0.05 mL of the mobile phase was added to 0.25 mL of the filtrated natamycin aliquot. The aliquots were then injected individually onto a high performance liquid chromatography (HPLC) column and the resulting peak areas were calculated. […] The column temperature was set to 25° C. and the natamycin was detected at a wavelength of 304 nm.
# [6] = Liquid phase concentration of natamycin in the suspensions (centrifugation, HPLC); format: physicochemical; conditions: supernatant of suspension in water
# Experimental: The supernatants were then collected and diluted 10-fold with an acetonitrile:water (3:7) solution. The concentration of natamycin in the liquid layer was then determined by injecting the samples individually onto an HPLC and comparing the UV-Vis absorption to that of a standard natamycin stock solution.
# Fusarium graminearum = format: in vivo; conditions: for Average Vigor: 0-10 scale
structure (smiles),measurement,setting,value
"C[C@@H]1C/C=C/C=C/C=C/C=C/[C@H](O[C@@H]2O[C@H](C)[C@@H](O)[C@H](N)[C@@H]2O)C[C@@H]2O[C@](O)(C[C@@H](O)C[C@H]3O[C@@H]3/C=C/C(=O)O1)C[C@H](O)[C@H]2C(=O)O [Natamycin 140206, natamycin]",BET,[1],7.73 m^2/g
same,Inhibition zone,Saccharomyces cerevisiae [2]; Table 22,167 mm^2
"C[C@@H]1C/C=C/C=C/C=C/C=C/[C@H](O[C@@H]2O[C@H](C)[C@@H](O)[C@H](N)[C@@H]2O)C[C@@H]2O[C@](O)(C[C@@H](O)C[C@H]3O[C@@H]3/C=C/C(=O)O1)C[C@H](O)[C@H]2C(=O)O [Natamycin F, natamycin]",BET,[1],9.36 m^2/g
same,Inhibition zone,"Saccharomyces cerevisiae [2]; Table 21, 16 h 4° C. then 24 h 30° C.",183 mm^2
same,Inhibition zone,Saccharomyces cerevisiae [2]; Table 25,142 mm2
same,Inhibition zone,Saccharomyces cerevisiae [2]; Table 29,100 mm2
same,Efficacy,"Botrytis cinerea; Table 33, 100 ppm natamycin, day 3",60.2%
same,D0.5 (average particle size of the particles),[3],15.3 μm
"C[C@@H]1C/C=C/C=C/C=C/C=C/[C@H](O[C@@H]2O[C@H](C)[C@@H](O)[C@H](N)[C@@H]2O)C[C@@H]2O[C@](O)(C[C@@H](O)C[C@H]3O[C@@H]3/C=C/C(=O)O1)C[C@H](O)[C@H]2C(=O)O [Control Natamycin, comprising natamycin F]",BET analysis,[1],9.4 m^2/g
"C[C@@H]1C/C=C/C=C/C=C/C=C/[C@H](O[C@@H]2O[C@H](C)[C@@H](O)[C@H](N)[C@@H]2O)C[C@@H]2O[C@](O)(C[C@@H](O)C[C@H]3O[C@@H]3/C=C/C(=O)O1)C[C@H](O)[C@H]2C(=O)O [Natamycin E, natamycin]",Inhibition zone,Saccharomyces cerevisiae [2]; Table 24,242 mm2
same,Inhibition zone,Saccharomyces cerevisiae [2]; Table 26,188 mm2
same,Inhibition zone,Saccharomyces cerevisiae [2]; Table 27,179 mm2
same,Inhibition zone,Saccharomyces cerevisiae [2]; Table 28,110 mm2
same,Inhibition zone,Saccharomyces cerevisiae [4]; 24 h,480 mm^2
same,Inhibition zone,Saccharomyces cerevisiae [4]; 48 h (disc replaced on a new plate after 24 h),298 mm^2
same,Efficacy,"Botrytis cinerea; Table 32, 100 ppm natamycin, day 3",54%
same,Efficacy,"Botrytis cinerea; Table 34, day 3",75%
same,Efficacy,"Botrytis cinerea; Table 34, day 5",58%
same,Efficacy,"Botrytis cinerea; Table 34, day 7",53%
same,Efficacy,"Botrytis cinerea; Table 34, day 9",42%
same,Efficacy,"Botrytis cinerea; Table 35, 100 ppm, day 3",84%
same,Efficacy,"Botrytis cinerea; Table 35, 100 ppm, day 5",41%
same,Efficacy,"Botrytis cinerea; Table 35, 100 ppm, day 7",12%
same,Efficacy,"Botrytis cinerea; Table 35, 2000 ppm, day 3",100%
same,Efficacy,"Botrytis cinerea; Table 35, 2000 ppm, day 5",62%
same,Efficacy,"Botrytis cinerea; Table 35, 2000 ppm, day 7",50%
same,D0.5 (average particle size of the particles),[3],14.4 μm
"C[C@@H]1C/C=C/C=C/C=C/C=C/[C@H](O[C@@H]2O[C@H](C)[C@@H](O)[C@H](N)[C@@H]2O)C[C@@H]2O[C@](O)(C[C@@H](O)C[C@H]3O[C@@H]3/C=C/C(=O)O1)C[C@H](O)[C@H]2C(=O)O [Control Natamycin, natamycin]",HPLC peak area,[5]; 20 s,3966 mAUs
same,HPLC peak area,[5]; 60 s,4077 mAUs
same,HPLC peak area,[5]; 300 s,4005 mAUs
same,Natamycin in the liquid phase,[6],68 µg/mL
same,average BET surface area,[1]; average of the trials of Table 4,8.5 m^2/g
same,Number of plants at last count,Fusarium graminearum; 2.5 g AI/100 kg,47
same,Plant loss,Fusarium graminearum; 2.5 g AI/100 kg,52%
same,Average Vigor,Fusarium graminearum; 2.5 g AI/100 kg,7.9
same,Number of plants at last count,Fusarium graminearum; 5 g AI/100 kg,45
same,Plant loss,Fusarium graminearum; 5 g AI/100 kg,52%
same,Average Vigor,Fusarium graminearum; 5 g AI/100 kg,7.8
same,Number of plants at last count,Fusarium graminearum; 10 g AI/100 kg,36
same,Plant loss,Fusarium graminearum; 10 g AI/100 kg,62%
same,Average Vigor,Fusarium graminearum; 10 g AI/100 kg,7.5
same,Number of plants at last count,Fusarium graminearum; 20 g AI/100 kg,45
same,Plant loss,Fusarium graminearum; 20 g AI/100 kg,52%
same,Average Vigor,Fusarium graminearum; 20 g AI/100 kg,7.7
"C[C@@H]1C/C=C/C=C/C=C/C=C/[C@H](O[C@@H]2O[C@H](C)[C@@H](O)[C@H](N)[C@@H]2O)C[C@@H]2O[C@](O)(C[C@@H](O)C[C@H]3O[C@@H]3/C=C/C(=O)O1)C[C@H](O)[C@H]2C(=O)O [Control Natamycin, comprising natamycin batch # 140206]",BET analysis,[1],7.7 m^2/g
